Article PMC12397910
Blank lines part the entries; values can stand above or below the molecule they belong to.

Assays:
[1] = tested on: dsBcl3 WT (90-bp dsBcl3-G4) (DNA, G4) CAGGAAACCCCTGGGGCGTACGGGTGGCCCCGGGGGGGCCGGGGGCGGGGAGGCGGGCGGCCGGCACCGCCCCGGCCGACAAAAGTCCCT/AGGGACTTTTGTCGGCCGGGGCGGTGCCGGCCGCCCGCCTCCCCGCCCCCGGCCCCCCCGGGGCCACCCGTACGCCCCAGGGGTTTCCTG; experiment: NMM fluorescence turn-on (610 nm); settings: 1 mM K+ (KCl); 10% PEG8000; also 100 mM KCl without PEG; 25 °C; 1 μM NMM, 2 μM DNA
[2] = tested on: dsBcl3 G6/8A (DNA, duplex) CAGGAAACCCCTGGGGCGTACGGGTGGCCCCGGGGGGGCCGGAGGCGGAGAGGCGGGCGGCCGGCACCGCCCCGGCCGACAAAAGTCCCT/AGGGACTTTTGTCGGCCGGGGCGGTGCCGGCCGCCCGCCTCTCCGCCTCCGGCCCCCCCGGGGCCACCCGTACGCCCCAGGGGTTTCCTG; experiment: NMM fluorescence turn-on (610 nm); settings: 1 mM K+ (KCl); 10% PEG8000; also 100 mM KCl without PEG; 25 °C; 1 μM NMM, 2 μM DNA; no peak
[3] = tested on: dsBcl3 GI/IVA (DNA, duplex) CAGGAAACCCCTGGGGCGTACGGGTGGCCCCGGAAAGGCCGGGGGCGGGGAGGCAAACGGCCGGCACCGCCCCGGCCGACAAAAGTCCCT/AGGGACTTTTGTCGGCCGGGGCGGTGCCGGCCGTTTGCCTCCCCGCCCCCGGCCTTTCCGGGGCCACCCGTACGCCCCAGGGGTTTCCTG; experiment: NMM fluorescence turn-on (610 nm); settings: 1 mM K+ (KCl); 10% PEG8000; also 100 mM KCl without PEG; 25 °C; 1 μM NMM, 2 μM DNA; no peak
[4] = tested on: Bcl3 G6A (DNA, G4) CGGGGGGGCCGGAGGCGGGGAGGCGGGCGG; experiment: CD melting at 284 nm; settings: 100 mM K+ (KCl); 10 mM Tris-HCl pH 7.5; 20 μM ligand, ligand:G4 2:1; stabilised
[5] = tested on: Bcl3 G6/8A (DNA, G4) CGGGGGGGCCGGAGGCGGAGAGGCGGGCGG; experiment: CD melting at 284 nm; settings: 100 mM K+ (KCl); 10 mM Tris-HCl pH 7.5; 20 μM ligand, ligand:G4 2:1; stabilised
[6] = tested on: Bcl3 GI/IVA (DNA, G4) CGGAAAGGCCGGGGGCGGGGAGGCAAACGG; experiment: CD melting at 284 nm; settings: 100 mM K+ (KCl); 10 mM Tris-HCl pH 7.5; 20 μM ligand, ligand:G4 2:1; stabilised
[7] = tested on: Bcl3 promoter WT (30-nt, G-rich positive strand) (DNA, G4) CGGGGGGGCCGGGGGCGGGGAGGCGGGCGG; experiment: ThT fluorescence turn-on (490 nm); settings: 100 mM K+ (KCl); 10 mM Tris-HCl pH 7.5, 25 °C; 0.5 μM ThT, 1 μM DNA
[8] = tested on: Bcl3 G6A (DNA, G4) CGGGGGGGCCGGAGGCGGGGAGGCGGGCGG; experiment: CD melting at 264 nm; settings: 100 mM K+ (KCl); 10 mM Tris-HCl pH 7.5; 20 μM ligand, ligand:G4 2:1; stabilised
[9] = tested on: Bcl3 G6/8A (DNA, G4) CGGGGGGGCCGGAGGCGGAGAGGCGGGCGG; experiment: CD melting at 264 nm; settings: 100 mM K+ (KCl); 10 mM Tris-HCl pH 7.5; 20 μM ligand, ligand:G4 2:1; stabilised
[10] = tested on: Bcl3 GI/IVA (DNA, G4) CGGAAAGGCCGGGGGCGGGGAGGCAAACGG; experiment: CD melting at 264 nm; settings: 100 mM K+ (KCl); 10 mM Tris-HCl pH 7.5; 20 μM ligand, ligand:G4 2:1; stabilised
SP1 [11] = target: T1, SP1 (UniProt P08047 1-785); experiment: EMSA; annealed in KCl, purified Inter 1; Hill 3.53; EMSA: 10 mM HEPES-NaOH pH 7.3, 50 mM KCl, 5 mM MgCl2, 0.5 mM DTT, 5% glycerol, 0.5 mg/mL BSA, 1 h, gel at 4 C; BLI: PBS, room temperature; oligos annealed in 10 mM Tris-HCl pH 7.5 +/- 100 mM KCl; settings: protein: commercial
T1 sequence (P08047 whole entry): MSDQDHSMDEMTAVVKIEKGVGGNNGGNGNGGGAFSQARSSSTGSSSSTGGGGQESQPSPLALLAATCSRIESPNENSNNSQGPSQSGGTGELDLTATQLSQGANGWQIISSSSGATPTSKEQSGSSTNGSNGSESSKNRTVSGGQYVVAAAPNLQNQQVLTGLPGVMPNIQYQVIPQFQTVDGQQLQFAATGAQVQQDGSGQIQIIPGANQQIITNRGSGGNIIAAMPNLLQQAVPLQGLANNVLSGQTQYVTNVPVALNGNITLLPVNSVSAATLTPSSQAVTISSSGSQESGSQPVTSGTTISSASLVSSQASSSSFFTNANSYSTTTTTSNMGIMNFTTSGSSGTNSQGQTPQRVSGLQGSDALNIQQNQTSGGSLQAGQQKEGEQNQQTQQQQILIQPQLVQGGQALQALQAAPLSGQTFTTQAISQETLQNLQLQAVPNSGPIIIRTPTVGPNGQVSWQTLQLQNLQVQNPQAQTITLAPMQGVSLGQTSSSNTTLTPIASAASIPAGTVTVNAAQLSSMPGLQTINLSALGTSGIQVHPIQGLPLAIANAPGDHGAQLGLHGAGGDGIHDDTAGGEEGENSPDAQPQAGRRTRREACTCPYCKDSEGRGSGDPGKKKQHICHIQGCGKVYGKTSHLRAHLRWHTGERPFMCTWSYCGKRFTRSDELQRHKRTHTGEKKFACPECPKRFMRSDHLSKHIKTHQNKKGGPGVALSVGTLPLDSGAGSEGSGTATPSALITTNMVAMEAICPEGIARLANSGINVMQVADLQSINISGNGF

SP1 [12] = target: T1, SP1; experiment: EMSA; annealed with KCl; Kd only in Fig S13B; EMSA: 10 mM HEPES-NaOH pH 7.3, 50 mM KCl, 5 mM MgCl2, 0.5 mM DTT, 5% glycerol, 0.5 mg/mL BSA, 1 h, gel at 4 C; BLI: PBS, room temperature; oligos annealed in 10 mM Tris-HCl pH 7.5 +/- 100 mM KCl; settings: protein: commercial; G4
SP1 [13] = target: T1, SP1; experiment: EMSA; annealed without KCl; EMSA: 10 mM HEPES-NaOH pH 7.3, 50 mM KCl, 5 mM MgCl2, 0.5 mM DTT, 5% glycerol, 0.5 mg/mL BSA, 1 h, gel at 4 C; BLI: PBS, room temperature; oligos annealed in 10 mM Tris-HCl pH 7.5 +/- 100 mM KCl; settings: protein: commercial; single strand
SP1 [14] = target: T1, SP1; experiment: EMSA; annealed in 100 mM KCl; Hill 4.42; EMSA: 10 mM HEPES-NaOH pH 7.3, 50 mM KCl, 5 mM MgCl2, 0.5 mM DTT, 5% glycerol, 0.5 mg/mL BSA, 1 h, gel at 4 C; BLI: PBS, room temperature; oligos annealed in 10 mM Tris-HCl pH 7.5 +/- 100 mM KCl; settings: protein: commercial; label: 5' biotin (BLI); G4, parallel, intra- and intermolecular
SP1 [15] = target: T1, SP1; experiment: BLI; annealed in 100 mM KCl; local 1:1 fit at 457 nM SP1; not truly 1:1; EMSA: 10 mM HEPES-NaOH pH 7.3, 50 mM KCl, 5 mM MgCl2, 0.5 mM DTT, 5% glycerol, 0.5 mg/mL BSA, 1 h, gel at 4 C; BLI: PBS, room temperature; oligos annealed in 10 mM Tris-HCl pH 7.5 +/- 100 mM KCl; settings: protein: commercial; label: 5' biotin (BLI); G4, parallel, intra- and intermolecular

binding [1]: yes | binding [2]: no | binding [3]: no
Molecule: CCc1c(C)c2cc3nc(cc4nc(cc5c(CC)c(C)c(cc1[nH]2)n5C)C(C)=C4CCC(=O)O)C(CCC(=O)O)=C3C

binding [4]: yes | binding [5]: yes | binding [6]: yes
Molecule: C[n+]1ccc(-c2c3nc(c(-c4cc[n+](C)cc4)c4ccc([nH]4)c(-c4cc[n+](C)cc4)c4nc(c(-c5cc[n+](C)cc5)c5ccc2[nH]5)C=C4)C=C3)cc1

binding [7]: yes
Molecule: Cc1ccc2c(c1)sc(-c1ccc(N(C)C)cc1)[n+]2C

binding [8]: yes | binding [9]: yes | binding [10]: yes
Molecule: NCCOc1cc(C(=O)Nc2cc(OCCN)c3ccccc3n2)nc(C(=O)Nc2cc(OCCN)c3ccccc3n2)c1

Molecule: AGAGACCGGGGGCGGGGAGACGAG (structured_DNA) [PCNG4 Inter 1, annealed with KCl]
Kd (SP1 [11]): 24.5 nM

Molecule: GGGUCCGGGCCGGGUGGG (structured_RNA) [G4 RNA (KCl)]
binding result (SP1 [12]): binds

Molecule: GGGUCCGGGCCGGGUGGG (ssRNA) [G4 RNA annealed without KCl]
binding result (SP1 [13]): binds

Molecule: GGGGGCCGGGGGCGGGGAGGCGGG (structured_DNA) [Bcl3 WT 24-nt, annealed with KCl (G4)]
Kd (SP1 [14]): 19.1 nM | Kd (SP1 [15]): 2.36 nM
